{"source": "paper PMC6981816", "about": "“Characterization of Effectiveness in Concerted Ih Inhibition and IK(Ca) Stimulation by Pterostilbene (Trans-3,5-dimethoxy-4′-hydroxystilbene), a Stilbenoid” (International Journal of Molecular Sciences, 2020)", "target": "T1, large-conductance Ca2+-activated K+ (BKCa) channel (IK(Ca)) (Rattus norvegicus, UniProt Q62976)", "T1 construct": "gene Kcnma1; native channel in GH3 pituitary cells", "T1 sequence (Q62976 whole entry)": "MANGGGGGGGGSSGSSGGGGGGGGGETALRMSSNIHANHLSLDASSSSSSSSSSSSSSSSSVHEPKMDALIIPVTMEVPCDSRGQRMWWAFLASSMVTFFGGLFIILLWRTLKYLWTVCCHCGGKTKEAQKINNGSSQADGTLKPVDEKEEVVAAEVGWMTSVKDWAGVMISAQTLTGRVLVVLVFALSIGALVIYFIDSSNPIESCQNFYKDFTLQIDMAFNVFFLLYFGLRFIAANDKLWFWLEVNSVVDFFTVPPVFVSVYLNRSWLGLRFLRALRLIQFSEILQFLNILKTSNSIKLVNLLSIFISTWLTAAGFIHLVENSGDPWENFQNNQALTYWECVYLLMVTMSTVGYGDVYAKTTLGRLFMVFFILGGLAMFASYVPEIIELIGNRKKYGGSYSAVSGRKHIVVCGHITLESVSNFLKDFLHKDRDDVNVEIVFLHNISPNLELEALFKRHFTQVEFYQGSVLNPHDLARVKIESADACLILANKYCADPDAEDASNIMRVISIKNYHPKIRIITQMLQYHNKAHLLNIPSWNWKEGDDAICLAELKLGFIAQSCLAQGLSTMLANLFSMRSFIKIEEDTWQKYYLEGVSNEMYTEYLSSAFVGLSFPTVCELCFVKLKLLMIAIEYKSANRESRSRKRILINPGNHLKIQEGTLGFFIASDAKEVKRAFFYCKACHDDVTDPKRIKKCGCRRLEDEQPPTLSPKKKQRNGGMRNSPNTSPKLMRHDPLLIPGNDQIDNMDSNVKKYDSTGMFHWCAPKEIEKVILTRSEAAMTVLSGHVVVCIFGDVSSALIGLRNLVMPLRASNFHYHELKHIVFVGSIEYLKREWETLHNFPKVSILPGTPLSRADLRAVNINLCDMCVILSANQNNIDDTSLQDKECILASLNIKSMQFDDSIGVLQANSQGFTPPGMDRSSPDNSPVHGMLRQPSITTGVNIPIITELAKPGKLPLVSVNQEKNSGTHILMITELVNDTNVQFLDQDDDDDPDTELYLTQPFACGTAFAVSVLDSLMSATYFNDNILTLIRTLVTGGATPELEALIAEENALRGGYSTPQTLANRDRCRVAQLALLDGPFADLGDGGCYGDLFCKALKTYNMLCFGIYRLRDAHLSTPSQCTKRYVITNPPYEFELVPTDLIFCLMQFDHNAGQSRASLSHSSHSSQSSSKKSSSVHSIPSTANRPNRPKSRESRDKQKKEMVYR", "assay": "whole-cell patch clamp of IK(Ca), concentration-response; reversed by verruculogen", "assay_type": "cell-based"}
{"compound": "COc1cc(/C=C/c2ccc(O)cc2)cc(OC)c1", "note": "[PTER, trans-3,5-dimethoxy-4′-hydroxystilbene]", "values": [{"measurement": "EC50", "result": 2.23, "unit": "µM"}]}
